In experiment [1] the target is T1, Dickkopf-related protein 1 (Homo sapiens) (UniProt O94907).
T1 sequence (whole entry): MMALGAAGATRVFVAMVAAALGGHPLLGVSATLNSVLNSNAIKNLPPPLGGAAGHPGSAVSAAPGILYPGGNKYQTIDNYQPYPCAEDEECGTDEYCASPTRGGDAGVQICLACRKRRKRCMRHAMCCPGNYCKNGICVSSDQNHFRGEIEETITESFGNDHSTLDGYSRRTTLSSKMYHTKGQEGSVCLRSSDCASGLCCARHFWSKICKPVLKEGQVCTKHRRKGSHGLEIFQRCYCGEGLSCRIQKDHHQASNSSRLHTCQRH
Nature of the experiment: Inhibition of biotin-labeled human recombinant DKK1 assessed as reduction in DKK1 interaction with LRP-6/Fc incubated overnight by chemiluminescence based Alpha-screen assay.

Experiment [2] has as its target T2, Dickkopf-related protein 1 (Homo sapiens, UniProt O94907).
T2 sequence (O94907 whole entry): T1 sequence (whole entry)
Nature of the experiment: Inhibition of human DKK1 in MC3T3E1/TetON-Wnt1/STF-Luc#5 cells assessed as DKK1 neutralizing activity by Wnt1-induced TCF/LEF luciferase reporter gene assay. A general note: Reporter assays use an easily measured gene product as a stand-in for the process of interest.

For experiment [3], the target named is T3, Dickkopf WNT-signaling pathway inhibitor 1 (Rattus norvegicus) (UniProt A6I0Z0).
T3 sequence (whole entry): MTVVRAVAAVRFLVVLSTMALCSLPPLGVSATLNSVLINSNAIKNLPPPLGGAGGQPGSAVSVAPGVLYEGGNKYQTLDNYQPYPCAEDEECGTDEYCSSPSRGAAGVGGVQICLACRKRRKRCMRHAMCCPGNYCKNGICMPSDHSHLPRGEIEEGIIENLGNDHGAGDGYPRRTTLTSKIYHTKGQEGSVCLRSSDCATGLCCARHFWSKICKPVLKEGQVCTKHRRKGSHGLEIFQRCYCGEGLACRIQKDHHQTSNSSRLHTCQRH
Nature of the experiment: Inhibition of biotin-labeled rat recombinant DKK1 assessed as reduction in DKK1 interaction with LRP-6/Fc incubated overnight by chemiluminescence based Alpha-screen assay. For orientation: Bead proximity is the source of the signal in Alpha formats.

pIC50: −log10 of the molar value. Active and inactive are the calls of the source. The calls are words filed in the database; no cut-off is given here. Where a SMILES comes first, the peptide text is derived from it.

For the compound `CC[C@H](C)[C@H](NC(=O)[C@H](CCC(=O)O)NC(=O)[C@H](CC(=O)O)NC(=O)[C@H](CO)NC(=O)[C@H](C)NC(=O)[C@H](CC(=O)O)NC(=O)[C@@H](NC(=O)[C@H](CS)NC(=O)[C@H](CC(=O)O)NC(=O)[C@@H]1CCCN1C(=O)[C@H](Cc1ccccc1)NC(=O)CNC(=O)[C@H](CC(=O)O)NC(=O)[C@H](CS)NC(=O)[C@H](CCCNC(=N)N)NC(=O)[C@H](Cc1c[nH]c2ccccc12)NC(=O)[C@H](CCC(=O)O)NC(=O)[C@H](CCSC)NC(=O)[C@@H]1CCCN1C(=O)[C@H](Cc1ccc(O)cc1)NC(=O)[C@H](CS)NC(=O)[C@H](Cc1cnc[nH]1)NC(=O)[C@@H]1CCCN1C(=O)[C@H](Cc1cnc[nH]1)NC(=O)[C@H](CC(N)=O)NC(=O)[C@H](CCCNC(=N)N)NC(=O)[C@H](CS)NC(=O)[C@H](CCC(N)=O)NC(=O)[C@H](Cc1ccccc1)NC(=O)[C@H](Cc1ccc(O)cc1)NC(=O)[C@H](CO)NC(=O)[C@@H](NC(=O)[C@@H]1CCCN1C(=O)[C@@H](N)CS)C(C)C)C(C)C)C(=O)NCC(=O)N[C@@H](CS)C(=O)NCC(=O)NCC(=O)NCC(=O)NCC(=O)O` (H-CPVSYFQCRNHPHCYPMEWRCDGFPDCVDASDEIGCGGGG-OH), the inhibition result in experiment [1] and in experiment [3] was “Active” in each case. The pIC50 (commonly the negative decadic logarithm of the IC50, by convention in mol/L) in experiment [2] was 8.52 to 9.10.

As to `CSCC[C@H](NC(=O)[C@@H]1CCCN1C(=O)[C@H](Cc1ccc(O)cc1)NC(=O)[C@H](CS)NC(=O)[C@H](Cc1cnc[nH]1)NC(=O)[C@@H]1CCCN1C(=O)[C@H](Cc1cnc[nH]1)NC(=O)[C@H](CC(N)=O)NC(=O)[C@H](CCCNC(=N)N)NC(=O)[C@H](CS)NC(=O)[C@H](CCC(N)=O)NC(=O)[C@H](Cc1ccccc1)NC(=O)[C@H](Cc1ccc(O)cc1)NC(=O)[C@H](CO)NC(=O)[C@@H](NC(=O)[C@@H]1CCCN1C(=O)[C@@H](N)CS)C(C)C)C(=O)N[C@@H](CCC(=O)O)C(=O)N[C@@H](Cc1c[nH]c2ccccc12)C(=O)N[C@@H](CCCNC(=N)N)C(=O)N[C@@H](CS)C(=O)N[C@@H](CC(=O)O)C(=O)NCC(=O)N[C@@H](Cc1ccccc1)C(=O)N1CCC[C@H]1C(=O)N[C@@H](CC(=O)O)C(=O)N[C@@H](CS)C(=O)N[C@@H](CC(C)C)C(=O)N[C@@H](CC(=O)O)C(=O)N[C@@H](CCC(=O)O)C(=O)N[C@@H](CO)C(=O)N[C@@H](CC(=O)O)C(=O)N[C@@H](CCC(=O)O)C(=O)N[C@@H](CCCCN)C(=O)NCC(=O)N[C@@H](CS)C(=O)NCC(=O)NCC(=O)NCC(=O)NCC(=O)O` (H-CPVSYFQCRNHPHCYPMEWRCDGFPDCLDESDEKGCGGGG-OH), the inhibition entry in experiment [1] and in experiment [3] was “Active” throughout. In addition, the pIC50 in experiment [2] is 8.52 to 9.10.

Take `CSCC[C@H](NC(=O)[C@@H]1CCCN1C(=O)[C@H](Cc1ccc(O)cc1)NC(=O)[C@H](CS)NC(=O)[C@H](Cc1cnc[nH]1)NC(=O)[C@@H]1CCCN1C(=O)[C@H](Cc1cnc[nH]1)NC(=O)[C@H](CC(N)=O)NC(=O)[C@H](CCCNC(=N)N)NC(=O)[C@H](CS)NC(=O)[C@H](CCC(N)=O)NC(=O)[C@H](Cc1ccccc1)NC(=O)[C@H](Cc1ccc(O)cc1)NC(=O)[C@H](CO)NC(=O)[C@H](CCC(=O)O)NC(=O)[C@@H]1CCCN1C(=O)[C@@H](N)CS)C(=O)N[C@@H](CCC(=O)O)C(=O)N[C@@H](Cc1c[nH]c2ccccc12)C(=O)N[C@@H](CCCNC(=N)N)C(=O)N[C@@H](CS)C(=O)N[C@@H](CC(=O)O)C(=O)NCC(=O)N[C@@H](Cc1ccccc1)C(=O)N1CCC[C@H]1C(=O)N[C@@H](CC(=O)O)C(=O)N[C@@H](CS)C(=O)N[C@H](C(=O)N[C@@H](CC(=O)O)C(=O)NCC(=O)N[C@@H](CO)C(=O)N[C@@H](CC(=O)O)C(=O)N[C@@H](CCC(=O)O)C(=O)N[C@@H](CC(C)C)C(=O)N[C@@H](CC(=O)O)C(=O)N[C@@H](CS)C(=O)NCC(=O)NCC(=O)NCC(=O)NCC(=O)O)C(C)C` (H-CPESYFQCRNHPHCYPMEWRCDGFPDCVDGSDELDCGGGG-OH): the inhibition entry in experiment [1] and in experiment [3] was “Active” throughout. Moreover, in experiment [2], the pIC50 was 8.52 to 9.10.

On to `CC[C@H](C)[C@H](NC(=O)[C@H](CS)NC(=O)[C@H](CC(=O)O)NC(=O)[C@@H]1CCCN1C(=O)[C@H](Cc1ccccc1)NC(=O)CNC(=O)[C@H](CC(=O)O)NC(=O)[C@H](CS)NC(=O)[C@H](CCCNC(=N)N)NC(=O)[C@H](Cc1c[nH]c2ccccc12)NC(=O)[C@H](CCC(=O)O)NC(=O)[C@H](CCSC)NC(=O)[C@@H]1CCCN1C(=O)[C@H](Cc1ccc(O)cc1)NC(=O)[C@H](CS)NC(=O)[C@H](Cc1cnc[nH]1)NC(=O)[C@@H]1CCCN1C(=O)[C@H](CC(C)C)NC(=O)[C@H](CC(N)=O)NC(=O)CNC(=O)[C@H](CS)NC(=O)[C@H](CCC(N)=O)NC(=O)[C@H](Cc1ccccc1)NC(=O)[C@H](Cc1ccc(O)cc1)NC(=O)[C@H](CO)NC(=O)[C@H](C)NC(=O)[C@@H]1CCCN1C(=O)[C@@H](N)CS)C(=O)N[C@@H](CC(=O)O)C(=O)NCC(=O)N[C@@H](CO)C(=O)N[C@@H](CC(=O)O)C(=O)N[C@@H](CCC(=O)O)C(=O)N[C@@H](CCCCN)C(=O)NCC(=O)N[C@@H](CS)C(=O)NCC(=O)NCC(=O)NCC(=O)NCC(=O)O` (H-CPASYFQCGNLPHCYPMEWRCDGFPDCIDGSDEKGCGGGG-OH), for which the inhibition result in experiment [1] and in experiment [3] was “Active” throughout. In addition, the pIC50 in experiment [2] was 8.52 to 9.10.
